The text below walks through data of patent US20250230155A1 (Vanderbilt University, priority 2021, published 2025).

Each structure is given as a SMILES string.

In this test the target is T1, human mAChR M4 (Homo sapiens, UniProt P08173).
T1 construct: expressed in transfected cells
T1 sequence (P08173 1-479): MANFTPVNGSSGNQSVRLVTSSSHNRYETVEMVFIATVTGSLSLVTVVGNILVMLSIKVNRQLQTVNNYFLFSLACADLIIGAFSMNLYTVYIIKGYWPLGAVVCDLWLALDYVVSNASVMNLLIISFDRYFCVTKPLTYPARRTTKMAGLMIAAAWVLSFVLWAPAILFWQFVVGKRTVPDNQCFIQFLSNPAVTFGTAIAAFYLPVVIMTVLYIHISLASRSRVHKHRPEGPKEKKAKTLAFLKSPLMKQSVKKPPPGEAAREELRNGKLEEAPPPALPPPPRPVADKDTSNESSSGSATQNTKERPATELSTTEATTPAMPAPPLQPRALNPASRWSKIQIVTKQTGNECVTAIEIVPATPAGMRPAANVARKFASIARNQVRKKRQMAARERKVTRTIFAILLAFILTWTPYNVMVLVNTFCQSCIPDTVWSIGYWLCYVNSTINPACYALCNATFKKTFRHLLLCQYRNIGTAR
Kind of test: mAChR M4 cell-based functional assay (calcium mobilization, CHO-K1 hM4-Gqi5 cells). The note with it: for EC50: positive allosteric modulator activity, increase in the EC20 acetylcholine response, CHO-K1 hM4-Gqi5 cells, read-out: Human M4 EC50; for Emax at 30 µM: CHO-K1, % ACh maximum at 30 μM, human M4. The protocol: Human and rat M4 cDNAs, along with the chimeric G protein Gqi5, were transfected into Chinese hamster ovary (CHO-K1) cells purchased from the American Type Culture Collection using Lipofectamine2000. hM4-Gqi5 cells were grown in Ham's F-12 medium containing 10% heat-inactivated fetal bovine serum (FBS), 20 mM HEPES, 50 μg/mL G418 sulfate, and 500 μg/mL Hygromycin B. rM4-Ggi5 cells were grown in DiVEM containing 10% heat-inactivated FBS, 20 mM THEPES, 400 μμg/mL G418 sulfate, and 500 μμg/mL Hygromycin B.
For high throughput measurement of agonist-evoked increases in intracellular calcium, CHO-K1 cells stably expressing muscarinic receptors were plated in growth medium lacking G418 and hygromycin at 15,000 cells/20 μL/well in Greiner 384-well black-walled, tissue culture (TC)-treated, clear-bottom plates (VWR). Cells were incubated overnight at 37° C. and 5% CO2. The next day, cells were washed using an ELX 405 (BioTek) with assay buffer; the final volume was then aspirated to 20 μL. Next, 20 μL of a […] of Fluo-4/acetoxymethyl ester (Invitrogen, Carlsbad, CA), prepared as a 2.3 mM stock in DMSO and mixed in a 1:1 ratio with 10% (w/v) Pluronic F-127 and diluted in assay buffer, was added to the wells and the cell plates were incubated for 50 min at 37° C. and 5% C02. Dye was removed by washing with the ELX 405 and the final volume was aspirated to 20 μL. Compound master plates were formatted in an 11 point concentration-response curve (CRC) format (1:3 dilutions) in 100% DMSO with a starting concentration of 10 mM using a BRAVO liquid handler (Agilent). Test compound CRCs were then transferred to daughter plates (240 nL) using the Echo acoustic plate reformatter (Labcyte, Sunnyvale, CA) and then diluted into assay buffer (40 μL) to a 2× stock using a Thermo Fisher Combi (Thermo Fisher Scientific, Waltham, MA).
Calcium flux was measured using the Functional Drug Screening System (FDSS) 6000 or 7000 (Hamamatsu Corporation, Tokyo, Japan) as an increase in the fluorescent static ratio. Compounds were applied to cells (20 μL, 2×) using the automated system of the FDSS at 2-4 seconds into the protocol and the data were collected at 1 Hz. At 144 seconds, 10 μL of an EC20 concentration of the muscarinic receptor agonist acetylcholine was added (5×), followed by the addition of 12 μL of an EC80 concentration of acetylcholine at the 230 second time point (5×). Agonist activity was analyzed as a concentration-dependent increase in calcium mobilization upon compound addition. Positive allosteric modulator activity was analyzed as a concentration-dependent increase in the EC20 acetylcholine response. Antagonist activity was analyzed as a concentration-dependent decrease in the EC80 acetylcholine response. Concentration-response curves were generated using a four-parameter logistical equation in XLFit curve fitting software (IDBS, Bridgewater, NJ) for Excel (Microsoft, Redmond, WA) or Prism (GraphPad Software, Inc., San Diego, CA).
Compounds were synthesized as described above. Activity (EC50 and Emax) was determined in the mAChR M4 cell-based functional assay as described above and the data are shown in Table 2. The compound number corresponds to the compound numbers used in Table 1.
For orientation: Calcium assays in cells follow changes in intracellular calcium, usually with a dye or a luminescent sensor.

Consider `Cc1ccc2c(n1)CCN(c1nnc(C#N)cc1C)C2` [Example 605, 5-methyl-6-(2-methyl-7,8-dihydro-1,6-naphthyridin-6(5H)-yl)pyridazine-3-carbonitrile], for which the EC50 was determined as 1440 nM. In addition, the maximum response (Emax) (CHO-K1) turned out to be 106%.

With `Cc1cc2c(nc1N1CCc3ncc(C(F)(F)F)cc3C1)OCCN(Cc1ccccc1)C2=O` [Example 592, 4-benzyl-7-methyl-8-(3-(trifluoromethyl)-7,8-dihydro-1,6-naphthyridin-6(5H)-yl)-3,4-dihydropyrido[3,2-f][1,4]oxazepin-5(2H)-one], the maximum response (Emax) at 30 µM came to 38% and the concentration giving a half-maximal response (EC50) was 292 nM.

As to `Cc1cc(C(=O)N2CC(Cl)C2)nnc1N1CCc2ncc(-n3cccn3)cc2C1` [Example 532, (6-(3-(1H-pyrazol-1-yl)-7,8-dihydro-1,6-naphthyridin-6(5H)-yl)-5-methylpyridazin-3-yl)(3-chloroazetidin-1-yl)methanone], the Emax at 30 µM turned out to be 90% and the EC50 came out at 78 nM.

With `FC(F)(F)c1cnc2c(c1)CN(c1nc(C3CC3)nc3c1CCC3)CC2` [compound 265, 6-(2-cyclopropyl-6,7-dihydro-5H-cyclopenta[d]pyrimidin-4-yl)-3-(trifluoromethyl)-5,6,7,8-tetrahydro-1,6-naphthyridine], the concentration giving a half-maximal response (EC50) turned out to be 1480 nM.

For the compound `Cc1nc(Cl)c(C)c(N2CCc3ncc(Nc4ccccc4F)cc3C2)n1` [compound 85, 6-(6-chloro-2,5-dimethyl-pyrimidin-4-yl)-N-(2-fluorophenyl)-7,8-dihydro-5H-1,6-naphthyridin-3-amine], the maximum response (Emax) at 30 µM worked out at 86% and the half-maximal effective concentration (EC50) worked out at 361 nM.

`Cc1nn(C)cc1-c1cnc2c(c1)CN(c1nc(NCC(C)(C)O)nc(C)c1C)CC2` [compound 274, 1-((4-(3-(1,3-dimethyl-1H-pyrazol-4-yl)-7,8-dihydro-1,6-naphthyridin-6(5H)-yl)-5,6-dimethylpyrimidin-2-yl)amino)-2-methylpropan-2-ol]: the maximum response (Emax) at 30 µM came out at 87% and the EC50 worked out at 735 nM.

In the case of `Cc1nc(C)c(C)c(N2CCc3ncc(Nc4cccnc4F)cc3C2)n1` [compound 240, N-(2-fluoropyridin-3-yl)-6-(2,5,6-trimethylpyrimidin-4-yl)-5,6,7,8-tetrahydro-1,6-naphthyridin-3-amine], the Emax at 30 µM amounted to 61% and the half-maximal effective concentration (EC50) came out at 154 nM.

In the case of `Cc1cc(C#N)cnc1N1CCc2ncc(Nc3ccccc3F)cc2C1` [Example 7], the maximum response (Emax) at 30 µM stood at 94% and the EC50 is 90.5 nM.

For `Cc1cc(C#N)nnc1N1CCc2ncc(N3CC(C)Cn4nccc43)cc2C1` (stereo not shown) [Example 381, 5-methyl-6-(3-(6-methyl-6,7-dihydropyrazolo[1,5-a]pyrimidin-4(5H)-yl)-7,8-dihydro-1,6-naphthyridin-6(5H)-yl)pyridazine-3-carbonitrile], the Emax at 30 µM was 98% and the EC50 was found to be 384 nM.

For `Cc1cc(C#N)cnc1N1CCc2ncc(C3CCC3)cc2C1` [Example 403, 6-(3-cyclobutyl-7,8-dihydro-1,6-naphthyridin-6(5H)-yl)-5-methylnicotinonitrile], the maximal effect (Emax) at 30 µM worked out at 91% and the 50% effective concentration (EC50) was found to be 84 nM.

With `Cc1ncc(-c2cnc3c(c2)CN(c2nnc(C#N)cc2C)CC3)s1` [Example 390, 5-methyl-6-(3-(2-methylthiazol-5-yl)-7,8-dihydro-1,6-naphthyridin-6(5H)-yl)pyridazine-3-carbonitrile], the Emax at 30 µM is 78% and the EC50 worked out at 433 nM.

For the compound `Cc1cc(C#N)cnc1N1CCc2ncc(OCCOc3ccccc3F)cc2C1` [Example 429, 6-(3-(2-(2-fluorophenoxy)ethoxy)-7,8-dihydro-1,6-naphthyridin-6(5H)-yl)-5-methylnicotinonitrile], the maximal response (Emax) at 30 µM was 57% and the 50% effective concentration (EC50) was 2520 nM.

As to `[2H]C1([2H])Cc2ncc(Nc3ccccc3F)cc2C([2H])([2H])N1c1ncc(C#N)cc1C` [Example 612], the Emax at 30 µM amounted to 91% and the half-maximal effective concentration (EC50) was determined as 24 nM.

Consider `[2H]C([2H])([2H])c1cnc2c(c1)CN(c1nnc(C(=O)N3CCCC3)cc1C)CC2` [Example 578, (5-methyl-6-(3-(methyl-d3)-7,8-dihydro-1,6-naphthyridin-6(5H)-yl)pyridazin-3-yl)(pyrrolidin-1-yl)methanone], for which the Emax at 30 µM worked out at 105% and the EC50 stood at 2440 nM.

For `Cc1cnccc1CNC(=O)c1cnc(N2CCc3ncc(C(F)(F)F)cc3C2)c(C)c1` [Example 445, 5-methyl-N-((3-methylpyridin-4-yl)methyl)-6-(3-(trifluoromethyl)-7,8-dihydro-1,6-naphthyridin-6(5H)-yl)nicotinamide], the maximum response (Emax) at 30 µM was 100% and the EC50 turned out to be 170 nM.

`Cc1cc(C#N)cnc1N1CCc2ncc(Nc3cccc(Cl)c3F)cc2C1` [compound 114, 6-[3-(3-chloro-2-fluoro-anilino)-7,8-dihydro-5H-1,6-naphthyridin-6-yl]-5-methyl-pyridine-3-carbonitrile]: the maximum response (Emax) at 30 µM was 100% and the EC50 worked out at 969 nM.

Turning to `COc1ccc(Br)cc1CNC(=O)c1cnc(N2CCc3ncccc3C2)c(C)c1` [compound 141, N-[(5-bromo-2-methoxy-phenyl)methyl]-6-(7,8-dihydro-5H-1,6-naphthyridin-6-yl)-5-methyl-pyridine-3-carboxamide], the Emax at 30 µM amounted to 56% and the EC50 turned out to be 1420 nM.

On to `Cc1cc(C(=O)N2CCC2c2ccccc2)nnc1N1CCc2ncc(N3CCCn4nccc43)cc2C1` (stereo not shown) [Example 557, (6-(3-(6,7-dihydropyrazolo[1,5-a]pyrimidin-4(5H)-yl)-7,8-dihydro-1,6-naphthyridin-6(5H)-yl)-5-methylpyridazin-3-yl)(2-phenylazetidin-1-yl)methanone], for which the Emax at 30 µM came out at 91% and the EC50 was determined as 166 nM.

With `Cc1cnc(F)cc1-c1cnc2c(c1)CN(c1nnc(C#N)c(C)c1C)CC2` [compound 72, 6-[3-(2-fluoro-5-methyl-4-pyridyl)-7,8-dihydro-5H-1,6-naphthyridin-6-yl]-4,5-dimethyl-pyridazine-3-carbonitrile], the Emax at 30 µM was determined as 78% and the EC50 worked out at 233 nM.

Regarding `Cc1nc(Cl)c(C)c(N2CCc3ncc(Nc4c(F)cccc4F)cc3C2)n1` [compound 89, 6-(6-chloro-2,5-dimethyl-pyrimidin-4-yl)-N-(2,6-difluorophenyl)-7,8-dihydro-5H-1,6-naphthyridin-3-amine], the maximum response (Emax) at 30 µM turned out to be 80% and the EC50 was determined as 716 nM.

For `Cc1cc(-c2cnc3c(c2)CN(c2nc(C)nc(Cl)c2C)CC3)ccn1` [compound 93, 6-(6-chloro-2,5-dimethyl-pyrimidin-4-yl)-3-(2-methyl-4-pyridyl)-7,8-dihydro-5H-1,6-naphthyridine], the Emax at 30 µM worked out at 95% and the EC50 was 123 nM.

`[2H]C([2H])([2H])c1cnc2c(c1)CN(c1nnc(C(=O)NCc3ccncc3)cc1C)CC2` [Example 579, 5-methyl-6-(3-(methyl-d3)-7,8-dihydro-1,6-naphthyridin-6(5H)-yl)-N-(pyridin-4-ylmethyl)pyridazine-3-carboxamide]: the Emax at 30 µM was 111% and the EC50 was 50 nM.

The term Emax denotes the maximal effect, on the per cent scale that the assay sets. By EC50 is commonly meant the concentration needed to bring the measured effect to its halfway point.
